According to ChEMBL document CHEMBL1146011, “Diaryl substituted pyrrolidinones and pyrrolones as 5-HT2C inhibitors: synthesis and biological evaluation” (Bioorg Med Chem Lett, 2006):
The source made the active and inactive calls. The rule behind the calls is not given here.

Columns and labels:
[1] = molecular target: Beta-2 adrenergic receptor (Homo sapiens) (UniProt P07550); assay: Binding affinity to human adrenergic beta-2 receptor
[2] = molecular target: D(2) dopamine receptor (Homo sapiens) (UniProt P14416); assay: Binding affinity to human dopamine D2 receptor
[3] = molecular target: D(3) dopamine receptor (Homo sapiens, UniProt P35462); assay: Binding affinity to human dopamine D3 receptor
[4] = molecular target: T1, Adrenergic receptor alpha-1 (Homo sapiens, UniProt P35348+P25100+P35368); assay: Binding affinity to human adrenergic alpha-1 receptor; assay type: protein assay
T1 sequence (P35348 whole entry): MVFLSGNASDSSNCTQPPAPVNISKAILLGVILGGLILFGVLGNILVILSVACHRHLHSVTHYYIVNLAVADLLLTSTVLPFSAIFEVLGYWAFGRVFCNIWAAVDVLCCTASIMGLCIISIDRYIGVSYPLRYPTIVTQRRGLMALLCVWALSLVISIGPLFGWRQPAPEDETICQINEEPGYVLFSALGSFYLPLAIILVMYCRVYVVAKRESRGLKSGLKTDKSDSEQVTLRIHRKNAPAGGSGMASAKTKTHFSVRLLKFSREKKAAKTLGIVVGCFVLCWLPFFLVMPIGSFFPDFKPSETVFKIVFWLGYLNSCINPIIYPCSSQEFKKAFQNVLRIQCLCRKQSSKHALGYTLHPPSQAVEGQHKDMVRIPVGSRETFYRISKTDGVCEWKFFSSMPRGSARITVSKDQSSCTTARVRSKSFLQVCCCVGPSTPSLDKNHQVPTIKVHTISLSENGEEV
T1 sequence (P25100 whole entry): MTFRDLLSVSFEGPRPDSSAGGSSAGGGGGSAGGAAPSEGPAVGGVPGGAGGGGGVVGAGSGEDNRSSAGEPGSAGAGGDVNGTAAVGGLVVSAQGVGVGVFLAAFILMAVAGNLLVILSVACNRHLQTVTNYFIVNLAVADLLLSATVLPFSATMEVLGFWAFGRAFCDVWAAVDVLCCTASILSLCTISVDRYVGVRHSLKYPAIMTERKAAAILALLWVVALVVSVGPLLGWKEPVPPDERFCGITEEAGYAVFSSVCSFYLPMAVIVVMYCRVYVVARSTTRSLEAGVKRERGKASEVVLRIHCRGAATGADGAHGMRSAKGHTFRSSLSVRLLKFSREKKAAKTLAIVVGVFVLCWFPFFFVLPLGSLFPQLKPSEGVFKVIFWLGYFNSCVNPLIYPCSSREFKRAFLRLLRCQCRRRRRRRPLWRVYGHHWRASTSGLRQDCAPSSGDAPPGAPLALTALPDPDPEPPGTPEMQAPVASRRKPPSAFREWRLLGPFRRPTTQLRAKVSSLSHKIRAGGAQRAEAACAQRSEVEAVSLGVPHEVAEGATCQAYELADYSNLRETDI
T1 sequence (P35368 whole entry): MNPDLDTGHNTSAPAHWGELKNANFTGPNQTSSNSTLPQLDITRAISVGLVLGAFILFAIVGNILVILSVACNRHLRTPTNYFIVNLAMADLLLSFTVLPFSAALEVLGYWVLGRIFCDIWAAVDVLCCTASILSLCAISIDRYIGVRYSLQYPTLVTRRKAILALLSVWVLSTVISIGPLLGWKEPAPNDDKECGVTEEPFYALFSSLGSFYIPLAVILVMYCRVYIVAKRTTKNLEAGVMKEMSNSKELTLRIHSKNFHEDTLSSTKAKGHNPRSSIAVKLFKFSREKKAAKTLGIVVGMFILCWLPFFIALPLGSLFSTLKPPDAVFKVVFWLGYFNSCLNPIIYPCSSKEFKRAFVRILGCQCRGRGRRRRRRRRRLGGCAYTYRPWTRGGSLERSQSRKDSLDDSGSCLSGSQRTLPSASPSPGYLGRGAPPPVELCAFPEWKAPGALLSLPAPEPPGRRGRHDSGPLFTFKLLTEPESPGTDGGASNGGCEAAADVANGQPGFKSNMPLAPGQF

[5] = Plasma clearance in orally dosed rat; assay type: ADME, organism-based; details: po
[6] = tested on: Rattus norvegicus; assay: Volume of distribution in orally dosed rat; assay type: ADME, organism-based; details: in vivo, po
[7] = Half life in orally dosed rat; assay type: ADME, organism-based; details: in vivo, po
[8] = Bioavailability in orally dosed rat; assay type: ADME, organism-based; details: in vivo, po
[9] = Ratio of drug level in brain against plasma in orally dosed rat; assay type: ADME, organism-based; details: po, read-out: BPR
[10] = tested on: Rattus norvegicus; assay: Drug level in orally dosed rat brain; assay type: ADME, organism-based; details: in vivo, po
[11] = molecular target: 5-hydroxytryptamine receptor 7 (Homo sapiens, UniProt P34969); assay: Binding affinity to human 5HT7 receptor
[12] = molecular target: 5-hydroxytryptamine receptor 6 (Homo sapiens, UniProt P50406); assay: Binding affinity to human 5HT6 receptor
[13] = molecular target: T2, 5-hydroxytryptamine receptor 2C (Homo sapiens, UniProt P28335); assay: Binding affinity to human 5HT2C receptor
T2 sequence (P28335 whole entry): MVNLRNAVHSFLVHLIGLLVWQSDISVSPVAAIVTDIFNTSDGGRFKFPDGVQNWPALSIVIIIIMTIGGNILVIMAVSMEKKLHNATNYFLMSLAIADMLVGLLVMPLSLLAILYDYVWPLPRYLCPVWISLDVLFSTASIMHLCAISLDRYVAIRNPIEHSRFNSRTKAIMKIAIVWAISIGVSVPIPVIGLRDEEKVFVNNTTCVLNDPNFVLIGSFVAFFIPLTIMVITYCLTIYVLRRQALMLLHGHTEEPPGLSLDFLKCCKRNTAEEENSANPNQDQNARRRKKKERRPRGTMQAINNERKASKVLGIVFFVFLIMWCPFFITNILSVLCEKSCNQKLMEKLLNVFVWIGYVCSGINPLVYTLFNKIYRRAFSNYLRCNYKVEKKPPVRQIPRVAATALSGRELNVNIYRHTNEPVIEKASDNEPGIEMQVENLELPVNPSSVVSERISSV

[14] = molecular target: 5-hydroxytryptamine receptor 2A (Homo sapiens, UniProt P28223); assay: Binding affinity to human 5HT2A receptor
[15] = molecular target: 5-hydroxytryptamine receptor 2B (Homo sapiens, UniProt P41595); assay: Binding affinity to human 5HT2B receptor
[16] = molecular target: T3, 5-hydroxytryptamine receptor 1A (Homo sapiens, UniProt P08908); assay: Binding affinity to human 5HT1A receptor
T3 sequence (P08908 whole entry): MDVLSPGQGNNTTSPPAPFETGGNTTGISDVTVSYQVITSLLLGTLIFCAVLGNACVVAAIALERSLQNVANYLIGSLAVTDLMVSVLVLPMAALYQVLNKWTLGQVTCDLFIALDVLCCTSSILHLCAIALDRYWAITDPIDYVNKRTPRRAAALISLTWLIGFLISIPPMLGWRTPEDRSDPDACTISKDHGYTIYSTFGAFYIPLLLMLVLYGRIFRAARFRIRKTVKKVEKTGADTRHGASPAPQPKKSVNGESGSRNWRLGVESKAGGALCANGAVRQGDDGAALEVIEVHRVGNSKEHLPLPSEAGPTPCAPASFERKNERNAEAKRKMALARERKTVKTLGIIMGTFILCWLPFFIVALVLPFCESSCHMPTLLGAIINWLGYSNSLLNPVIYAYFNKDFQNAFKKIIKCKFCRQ

[17] = molecular target: 5-hydroxytryptamine receptor 1B (Homo sapiens, UniProt P28222); assay: Binding affinity to human 5HT1B receptor
[18] = molecular target: 5-hydroxytryptamine receptor 1D (Homo sapiens, UniProt P28221); assay: Binding affinity to human 5HT1D receptor
Chain of 5-hydroxytryptamine receptor 1D (P28221 whole entry): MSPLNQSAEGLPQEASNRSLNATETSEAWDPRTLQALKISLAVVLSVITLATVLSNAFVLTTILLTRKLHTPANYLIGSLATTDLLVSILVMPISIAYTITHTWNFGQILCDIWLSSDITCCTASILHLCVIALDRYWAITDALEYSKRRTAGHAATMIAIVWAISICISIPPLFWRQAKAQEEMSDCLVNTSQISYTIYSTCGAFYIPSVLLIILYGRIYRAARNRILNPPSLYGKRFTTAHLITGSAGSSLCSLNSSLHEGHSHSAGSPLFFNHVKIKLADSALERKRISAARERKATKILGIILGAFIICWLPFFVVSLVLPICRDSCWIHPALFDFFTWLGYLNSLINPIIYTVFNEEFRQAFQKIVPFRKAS

Chain of 5-hydroxytryptamine receptor 1B (P28222 whole entry): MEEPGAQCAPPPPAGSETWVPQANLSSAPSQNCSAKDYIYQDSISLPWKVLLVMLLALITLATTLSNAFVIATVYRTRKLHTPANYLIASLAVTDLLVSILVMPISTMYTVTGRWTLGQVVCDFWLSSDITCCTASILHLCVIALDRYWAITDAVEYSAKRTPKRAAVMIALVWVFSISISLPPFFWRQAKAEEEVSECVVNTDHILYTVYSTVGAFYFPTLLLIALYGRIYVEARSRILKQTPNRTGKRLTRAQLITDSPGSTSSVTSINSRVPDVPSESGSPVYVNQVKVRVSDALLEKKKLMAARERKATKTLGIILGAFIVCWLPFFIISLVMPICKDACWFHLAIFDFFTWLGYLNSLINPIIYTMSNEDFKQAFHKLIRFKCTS
Chain of 5-hydroxytryptamine receptor 2B (P41595 whole entry): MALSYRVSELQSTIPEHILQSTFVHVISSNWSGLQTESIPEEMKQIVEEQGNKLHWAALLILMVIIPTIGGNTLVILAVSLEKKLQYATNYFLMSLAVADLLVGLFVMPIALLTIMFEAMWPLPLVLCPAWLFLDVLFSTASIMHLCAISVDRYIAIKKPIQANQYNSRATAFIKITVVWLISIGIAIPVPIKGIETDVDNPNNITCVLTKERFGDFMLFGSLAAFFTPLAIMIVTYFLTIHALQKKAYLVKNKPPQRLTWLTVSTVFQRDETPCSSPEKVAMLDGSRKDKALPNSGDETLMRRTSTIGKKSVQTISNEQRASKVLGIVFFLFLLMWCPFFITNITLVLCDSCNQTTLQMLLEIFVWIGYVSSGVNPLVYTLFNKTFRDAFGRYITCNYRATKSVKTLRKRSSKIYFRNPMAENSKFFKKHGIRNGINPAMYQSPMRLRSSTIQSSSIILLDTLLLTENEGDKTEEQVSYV
Chain of Beta-2 adrenergic receptor (Homo sapiens) (P07550 whole entry, looked up): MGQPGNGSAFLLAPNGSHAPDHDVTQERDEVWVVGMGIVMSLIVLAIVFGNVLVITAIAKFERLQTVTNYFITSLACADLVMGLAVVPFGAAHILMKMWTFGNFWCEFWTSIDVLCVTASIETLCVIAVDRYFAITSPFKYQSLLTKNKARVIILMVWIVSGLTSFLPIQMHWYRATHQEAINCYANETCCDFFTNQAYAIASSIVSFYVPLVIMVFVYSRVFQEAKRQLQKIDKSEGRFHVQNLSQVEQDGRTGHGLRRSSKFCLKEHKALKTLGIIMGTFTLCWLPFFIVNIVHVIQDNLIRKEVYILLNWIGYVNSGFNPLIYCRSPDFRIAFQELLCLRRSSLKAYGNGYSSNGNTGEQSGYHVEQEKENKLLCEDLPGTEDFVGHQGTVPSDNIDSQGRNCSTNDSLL
Chain of 5-hydroxytryptamine receptor 6 (P50406 whole entry): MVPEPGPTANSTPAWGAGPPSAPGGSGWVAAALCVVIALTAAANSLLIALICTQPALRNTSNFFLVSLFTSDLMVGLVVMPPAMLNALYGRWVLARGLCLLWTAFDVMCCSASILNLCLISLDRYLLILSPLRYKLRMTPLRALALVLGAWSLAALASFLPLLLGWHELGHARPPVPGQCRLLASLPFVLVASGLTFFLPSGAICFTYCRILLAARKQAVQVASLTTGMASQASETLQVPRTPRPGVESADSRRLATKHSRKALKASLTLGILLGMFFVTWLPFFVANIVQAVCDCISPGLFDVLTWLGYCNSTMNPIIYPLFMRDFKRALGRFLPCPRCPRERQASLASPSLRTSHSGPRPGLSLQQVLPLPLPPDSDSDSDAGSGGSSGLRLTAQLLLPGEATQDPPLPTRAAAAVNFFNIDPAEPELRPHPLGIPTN
Chain of 5-hydroxytryptamine receptor 2A (P28223 whole entry): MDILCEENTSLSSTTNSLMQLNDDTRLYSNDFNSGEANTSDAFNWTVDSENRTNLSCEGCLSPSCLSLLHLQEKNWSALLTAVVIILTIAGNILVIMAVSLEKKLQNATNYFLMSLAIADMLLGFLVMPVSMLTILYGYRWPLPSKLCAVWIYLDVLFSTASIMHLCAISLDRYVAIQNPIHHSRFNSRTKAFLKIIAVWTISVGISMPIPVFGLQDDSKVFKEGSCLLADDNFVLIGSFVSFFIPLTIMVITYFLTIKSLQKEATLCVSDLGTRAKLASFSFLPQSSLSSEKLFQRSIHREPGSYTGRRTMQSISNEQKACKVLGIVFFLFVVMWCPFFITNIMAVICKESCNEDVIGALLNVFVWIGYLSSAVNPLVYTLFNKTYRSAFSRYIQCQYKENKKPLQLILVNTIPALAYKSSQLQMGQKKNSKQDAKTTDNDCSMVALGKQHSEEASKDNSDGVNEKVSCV
Chain of 5-hydroxytryptamine receptor 7 (P34969 whole entry): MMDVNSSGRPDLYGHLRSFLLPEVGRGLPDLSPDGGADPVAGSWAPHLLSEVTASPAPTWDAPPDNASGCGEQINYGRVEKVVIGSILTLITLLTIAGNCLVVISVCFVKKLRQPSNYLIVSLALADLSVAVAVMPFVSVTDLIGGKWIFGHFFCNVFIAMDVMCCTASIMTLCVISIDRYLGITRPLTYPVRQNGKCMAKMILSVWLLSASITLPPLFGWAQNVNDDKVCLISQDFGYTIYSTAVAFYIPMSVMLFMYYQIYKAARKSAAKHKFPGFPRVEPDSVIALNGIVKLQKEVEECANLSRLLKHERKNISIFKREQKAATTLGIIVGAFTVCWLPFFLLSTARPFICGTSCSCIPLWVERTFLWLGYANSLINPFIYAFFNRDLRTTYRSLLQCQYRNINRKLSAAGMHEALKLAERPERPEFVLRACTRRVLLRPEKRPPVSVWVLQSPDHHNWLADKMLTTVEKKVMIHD
Chain of D(3) dopamine receptor (P35462 whole entry): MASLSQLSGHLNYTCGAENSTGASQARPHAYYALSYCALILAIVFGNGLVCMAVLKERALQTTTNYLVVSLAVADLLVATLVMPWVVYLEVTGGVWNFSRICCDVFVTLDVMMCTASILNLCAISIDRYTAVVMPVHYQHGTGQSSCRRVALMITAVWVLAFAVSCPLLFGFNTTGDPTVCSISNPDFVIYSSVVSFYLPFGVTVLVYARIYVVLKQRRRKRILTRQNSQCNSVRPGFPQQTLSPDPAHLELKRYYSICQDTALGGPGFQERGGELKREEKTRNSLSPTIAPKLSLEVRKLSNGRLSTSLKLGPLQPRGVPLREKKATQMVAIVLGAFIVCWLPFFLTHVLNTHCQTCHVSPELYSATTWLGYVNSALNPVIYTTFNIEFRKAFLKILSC
Chain of D(2) dopamine receptor (Homo sapiens) (P14416 whole entry): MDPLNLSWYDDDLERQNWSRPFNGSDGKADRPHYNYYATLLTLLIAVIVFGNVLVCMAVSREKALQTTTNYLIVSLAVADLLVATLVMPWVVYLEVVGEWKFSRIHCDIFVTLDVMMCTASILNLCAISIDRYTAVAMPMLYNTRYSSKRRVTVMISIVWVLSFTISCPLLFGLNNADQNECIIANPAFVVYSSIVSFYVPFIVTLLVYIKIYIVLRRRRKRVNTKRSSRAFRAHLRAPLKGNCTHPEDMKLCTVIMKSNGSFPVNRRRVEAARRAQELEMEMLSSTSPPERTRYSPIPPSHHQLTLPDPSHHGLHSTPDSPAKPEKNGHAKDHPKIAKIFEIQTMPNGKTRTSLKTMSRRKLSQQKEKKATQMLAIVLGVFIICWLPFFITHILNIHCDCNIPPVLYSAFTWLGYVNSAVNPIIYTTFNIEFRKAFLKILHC

## COc1ccc(N2CC=C(c3ccc(Cl)c(Cl)c3)C2=O)cc1OCCN1CCCCC1
[1]
  Activity: inactive
[2]
  Activity: inactive
[3]
  Ki: 457 nM
[4]
  Log Ki: -5.74
[5]
  CL/F: 59 mL/min/kg
[6]
  Vdss: 10.7 L
[7]
  half-life: 2.8 h
[8]
  bioavailability: 11%
[9]
  Kp: 3.9
[10]
  Drug uptake: 320 ng/g
[11]
  Ki: > 3160 nM
[12]
  Ki: > 3160 nM
[13]
  Ki: 0.794 nM
[14]
  Ki: 631 nM
[15]
  Ki: 631 nM
[16]
  Ki: > 3160 nM
[17]
  Ki: > 3160 nM
[18]
  Ki: > 3160 nM
